Results published in ChEMBL document CHEMBL1132011, “The synthesis of ketomethylene pseudopeptide analogues of dipeptide aldehyde inhibitors of calpain” (Bioorg Med Chem Lett, 1999).
pKi: −log10 of the molar value. Non-standard residues stand in square brackets, D forms with d. Residues, ends and D or L forms follow the SMILES beside them. ξ: configuration not given here. *: point of attachment. ξF = NC(Cc1ccccc1)C(=O)O; Cbz = O=C(OCc1ccccc1)*

Molecular target: T1, Calpain-1 catalytic subunit (Gallus gallus, UniProt P00789)
T1 sequence (P00789 whole entry): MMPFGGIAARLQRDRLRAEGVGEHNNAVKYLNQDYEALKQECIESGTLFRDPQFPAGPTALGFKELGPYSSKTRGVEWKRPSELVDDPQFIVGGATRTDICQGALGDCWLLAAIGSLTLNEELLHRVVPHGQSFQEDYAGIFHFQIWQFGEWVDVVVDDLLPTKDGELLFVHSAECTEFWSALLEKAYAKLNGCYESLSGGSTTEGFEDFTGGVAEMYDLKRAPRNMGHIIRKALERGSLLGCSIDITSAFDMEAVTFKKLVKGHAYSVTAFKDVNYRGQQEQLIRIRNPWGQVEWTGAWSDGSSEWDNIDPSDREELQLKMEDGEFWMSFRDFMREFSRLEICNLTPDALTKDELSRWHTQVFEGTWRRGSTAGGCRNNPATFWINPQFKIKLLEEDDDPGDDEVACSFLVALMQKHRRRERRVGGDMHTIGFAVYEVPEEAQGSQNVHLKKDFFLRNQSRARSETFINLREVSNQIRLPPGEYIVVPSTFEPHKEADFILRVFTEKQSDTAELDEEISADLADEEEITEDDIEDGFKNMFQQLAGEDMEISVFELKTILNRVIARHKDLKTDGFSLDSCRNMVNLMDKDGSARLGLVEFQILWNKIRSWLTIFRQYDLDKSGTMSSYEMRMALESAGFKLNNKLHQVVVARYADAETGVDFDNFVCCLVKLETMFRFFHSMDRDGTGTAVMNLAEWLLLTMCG
Test: Inhibitory activity against chicken gizzard smooth muscle calpain

Row | Structure (SMILES) | pKi
1 | CC(C)[C@H](NC(=O)OCc1ccccc1)C(=O)NC(C=O)Cc1ccccc1 (stereo partly drawn) (Cbz-Val-[ξF]-aldehyde) | 8.00
2 | CC(C=O)CC(=O)[C@@H](NC(=O)OCc1ccccc1)C(C)C (stereo partly drawn) | 4.35
3 | CC(C)[C@H](NC(=O)OCc1ccccc1)C(=O)C[C@H](C=O)Cc1ccccc1 | 5.60
